We go through five compounds from ChEMBL document CHEMBL1201862, “PubChem BioAssay data set” (2004).

Assay [1] in a line: Luminescence Cell-Based Dose Response to Identify Activators of 5'UTR Stem-Loop Driven Prion Protein mRNA Translation in H4-C Neuroglioblastoma Cells. [Related pubchem assays: 1829 (Project Summary), 1814 (Primary HTS)]. It is filed as functional.
The test system of another assay is HeLa. The assay is described as follows: HeLa cell cytotoxicity, dose response, cytotoxicity control for MITF activator project, CellTiter-Glo luminescence, cherry-pick samples (AID 540259). The class given is functional, cell-based. As to conditions: Homo sapiens. (ATP-based viability assays read luminescence as a measure of living cells.)
Another assay relates to H4. The assay is described as follows: Luminescence Cell-Based Dose Response HTS to Identify Activators of 5'UTR Stem-Loop Driven Prion Protein mRNA Translation in H4 Neuroglioblastoma Cells. [Related pubchem assays: 1829 (Project Summary), 1814 (Primary HTS)]. As to conditions: Homo sapiens. The class given is functional.
Assay [2] can be described thus: Luminescence Cell-Based Dose Response HTS to Identify Activators of Luciferase Translation or Activity in H4 […] Cells. [Related pubchem assays: 1829 (Project Summary), 1814 (Primary HTS)]. It is filed as functional.
Assay [3] is described as follows: Luminescence Cell-Based Dose Response to Identify Activators of Luciferase Translation or Activity in H4-C Neuroglioblastoma Cells. [Related pubchem assays: 1829 (Project Summary), 1814 (Primary HTS)]. It is filed as functional.
The nature of assay [4]: Luminescence Cell-Based Dose Confirmation to Identify Activators of 5'UTR Stem-Loop Driven Alpha-Synuclein mRNA Translation in H4 Neuroglioblastoma Cells. [Related pubchem assays: 1829 (Project Summary), 1814 (Primary HTS)]. It is filed as functional.
Assay [5] can be described thus: Luminescence Cell-Based Dose Confirmation HTS to Identify Activators of 5'UTR Stem-Loop Driven Alpha-Synuclein mRNA Translation in H4 Neuroglioblastoma Cells. [Related pubchem assays: 1829 (Project Summary), 1814 (Primary HTS)]. It is filed as functional.
The next assay has as its target T1, Streptokinase A (Streptococcus pyogenes serotype M1, UniProt P10520).
T1 sequence (P10520 whole entry): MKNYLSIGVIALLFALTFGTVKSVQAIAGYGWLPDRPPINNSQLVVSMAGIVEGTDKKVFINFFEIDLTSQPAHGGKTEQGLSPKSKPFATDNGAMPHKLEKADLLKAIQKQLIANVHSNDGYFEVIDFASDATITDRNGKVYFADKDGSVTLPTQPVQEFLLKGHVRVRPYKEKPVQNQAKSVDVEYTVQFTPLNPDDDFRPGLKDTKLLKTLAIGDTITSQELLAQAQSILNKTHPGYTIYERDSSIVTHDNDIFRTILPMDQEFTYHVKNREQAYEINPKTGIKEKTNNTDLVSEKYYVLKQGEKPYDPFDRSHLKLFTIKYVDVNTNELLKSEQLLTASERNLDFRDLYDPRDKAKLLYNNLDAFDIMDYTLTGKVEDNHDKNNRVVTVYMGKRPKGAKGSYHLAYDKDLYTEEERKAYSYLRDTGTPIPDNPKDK
The assay is described as follows: S. pyogenes streptokinase expression inhibitors, potency, dose response, plasminogen activation absorbance, OD405 (AID 1914).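 Further: secreted streptokinase activity via plasminogen activation per viability signal from cell pellet.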 It is filed as functional, Streptococcus pyogenes M1 GAS.

Assay [6] relates to Streptococcus sp. 'group A'. The assay is described as follows: growth inhibition of control SK(-) GAS strain, dose response, counter-screen for streptokinase expression inhibitor project, luminescence, kanamycin, BacTiterGlo, confirmation (AID 1900). The class given is functional, organism-based. (A counterscreen serves to expose hits that act by an unwanted route or on another target.)

The subject of another assay is Streptococcus. The assay is described as follows: Group A Streptococcus viability loss, dose response, counter-screen for streptokinase expression inhibitor project, luminescence, BacTiterGlo (AID 1915).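 Further: potency for reduction of bacterial viability or growth.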 The class given is functional, organism-based.
The nature of assay [7]: Escherichia coli growth inhibition, dose response, counter-screen for MEX-5/POS-1 RNA-binding inhibitor project, luminescence, NEB5alpha (AID 1959). The class given is functional.
Assay [8] addresses T2, Zinc finger protein mex-5 (Caenorhabditis elegans, UniProt Q9XUB2).
T2 sequence (Q9XUB2 whole entry): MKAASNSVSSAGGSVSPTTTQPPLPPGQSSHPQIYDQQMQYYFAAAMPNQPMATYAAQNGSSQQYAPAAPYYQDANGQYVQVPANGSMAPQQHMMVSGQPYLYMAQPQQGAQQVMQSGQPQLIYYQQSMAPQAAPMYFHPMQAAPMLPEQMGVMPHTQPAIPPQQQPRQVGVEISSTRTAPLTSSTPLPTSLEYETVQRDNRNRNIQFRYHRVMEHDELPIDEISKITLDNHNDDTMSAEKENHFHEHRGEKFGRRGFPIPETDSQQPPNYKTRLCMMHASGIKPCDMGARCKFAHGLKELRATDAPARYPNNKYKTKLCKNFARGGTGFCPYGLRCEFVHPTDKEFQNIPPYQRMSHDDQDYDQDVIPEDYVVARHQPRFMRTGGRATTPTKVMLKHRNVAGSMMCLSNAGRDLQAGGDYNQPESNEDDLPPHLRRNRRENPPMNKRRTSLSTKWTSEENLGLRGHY
The assay is described as follows: MEX-5/TCR-2 RNA interaction inhibitors, dose response, biochemical, C. elegans, fluorescence polarization (AID 1960).

Assay [9] concerns the target T3, RNA-binding protein pos-1 (Caenorhabditis elegans, UniProt G5EF15).
T3 sequence (G5EF15 whole entry): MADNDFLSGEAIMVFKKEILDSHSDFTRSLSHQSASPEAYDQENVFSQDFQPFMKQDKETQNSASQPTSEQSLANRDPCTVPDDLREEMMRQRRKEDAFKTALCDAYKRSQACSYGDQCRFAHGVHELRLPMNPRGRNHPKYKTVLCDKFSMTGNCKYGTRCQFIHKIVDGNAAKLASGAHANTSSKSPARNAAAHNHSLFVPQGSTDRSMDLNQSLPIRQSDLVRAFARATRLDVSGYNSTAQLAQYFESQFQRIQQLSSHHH
The assay is described as follows: inhibitors of POS-1/mex-3 RNA binding, dose response, biochemical, fluorescence polarization (AID 1964).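 Further: purified POS-1 fused to maltose binding protein made in E. coli; potency of compounds blocking POS-1 binding to fluorescent RNA.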

Assay [10] concerns the target T4, Microphthalmia-associated transcription factor (Homo sapiens, UniProt O75030).
T4 sequence (O75030 whole entry): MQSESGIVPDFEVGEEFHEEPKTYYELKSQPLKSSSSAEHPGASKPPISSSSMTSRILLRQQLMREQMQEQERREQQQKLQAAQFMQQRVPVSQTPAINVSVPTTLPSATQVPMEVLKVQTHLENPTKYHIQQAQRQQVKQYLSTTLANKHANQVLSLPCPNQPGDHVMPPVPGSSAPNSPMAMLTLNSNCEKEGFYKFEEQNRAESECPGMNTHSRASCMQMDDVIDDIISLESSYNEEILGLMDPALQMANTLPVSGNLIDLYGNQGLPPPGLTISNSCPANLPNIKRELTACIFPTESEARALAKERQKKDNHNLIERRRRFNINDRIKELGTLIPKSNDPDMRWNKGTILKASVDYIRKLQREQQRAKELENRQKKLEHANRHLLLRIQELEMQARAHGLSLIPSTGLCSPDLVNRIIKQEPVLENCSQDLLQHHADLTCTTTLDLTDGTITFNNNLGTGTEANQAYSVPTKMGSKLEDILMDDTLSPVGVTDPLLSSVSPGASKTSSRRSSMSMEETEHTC
The assay is described as follows: TRPM1 promoter luciferase signal decrease, dose response, MITF inhibitor project, cell-based, SK-MEL-5, cherry-picked, set 3 (AID 493073).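 Further: SK-MEL-5 melanoma cells with luciferase driven by the MITF target TRPM1 promoter.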 The class given is functional.

The target in assay [11] is Protein-tyrosine kinase 2-beta (Homo sapiens, UniProt Q14289).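 Further: potency of inhibitors of PYK2 kinase phosphorylation of poly-GT substrate.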
Sequence of Protein-tyrosine kinase 2-beta (Q14289 whole entry): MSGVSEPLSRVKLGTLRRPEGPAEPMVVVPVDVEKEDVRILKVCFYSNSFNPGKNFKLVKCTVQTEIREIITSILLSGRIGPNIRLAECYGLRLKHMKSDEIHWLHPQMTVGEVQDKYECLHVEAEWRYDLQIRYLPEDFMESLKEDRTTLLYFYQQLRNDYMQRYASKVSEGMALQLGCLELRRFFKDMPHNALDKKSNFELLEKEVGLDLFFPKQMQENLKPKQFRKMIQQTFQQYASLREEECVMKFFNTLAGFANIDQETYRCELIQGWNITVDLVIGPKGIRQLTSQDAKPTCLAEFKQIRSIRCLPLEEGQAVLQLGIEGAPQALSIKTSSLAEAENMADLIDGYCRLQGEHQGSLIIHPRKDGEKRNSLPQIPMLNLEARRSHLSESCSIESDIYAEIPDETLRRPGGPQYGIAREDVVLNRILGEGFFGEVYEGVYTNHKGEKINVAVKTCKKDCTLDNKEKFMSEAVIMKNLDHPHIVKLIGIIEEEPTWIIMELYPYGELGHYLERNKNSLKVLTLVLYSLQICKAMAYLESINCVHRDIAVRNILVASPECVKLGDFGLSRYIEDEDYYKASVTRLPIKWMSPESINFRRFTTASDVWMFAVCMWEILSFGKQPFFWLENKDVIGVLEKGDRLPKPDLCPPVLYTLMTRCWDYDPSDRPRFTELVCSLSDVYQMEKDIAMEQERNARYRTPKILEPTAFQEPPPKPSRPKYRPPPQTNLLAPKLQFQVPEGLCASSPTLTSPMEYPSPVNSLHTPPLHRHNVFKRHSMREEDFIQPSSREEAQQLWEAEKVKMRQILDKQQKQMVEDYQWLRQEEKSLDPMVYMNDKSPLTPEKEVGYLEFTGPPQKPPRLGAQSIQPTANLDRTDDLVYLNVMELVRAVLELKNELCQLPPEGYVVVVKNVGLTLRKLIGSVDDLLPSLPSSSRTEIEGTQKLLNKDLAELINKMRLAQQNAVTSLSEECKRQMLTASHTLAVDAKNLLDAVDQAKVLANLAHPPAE
The target in assay [12] is T5, Bcl-2-related protein A1 (Mus musculus, UniProt Q07440). The assay is described as follows: Bfl-1 inhibitors blocking BH3 peptide binding, confirmation, biochemical, TR-FRET, mouse Bfl-1 (AID 621).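 Further: TR-FRET binding of GST-Bfl-1 to FITC-labelled Bid peptide via terbium antibody.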 On the technique in general: Time-resolved FRET reads energy transfer from a long-lived donor to a nearby acceptor.
T5 sequence (Q07440 whole entry): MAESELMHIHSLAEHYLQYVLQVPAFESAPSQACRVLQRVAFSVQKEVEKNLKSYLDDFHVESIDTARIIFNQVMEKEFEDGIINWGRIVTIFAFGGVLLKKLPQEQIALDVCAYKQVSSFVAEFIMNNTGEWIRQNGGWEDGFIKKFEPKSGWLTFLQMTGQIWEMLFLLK
In assay [13] the target is T5, Bcl-2-related protein A1. The assay is described as follows: Bfl-1 binding inhibitors, SAR follow-up, biochemical, fluorescence polarization (AID 1070).
Assay [14] can be described thus: inhibitors of intracellular T. cruzi replication, confirmation, NIH3T3 host cells, beta-gal luminescence (AID 2044).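 Further: intracellular parasites grown in NIH/3T3 mouse fibroblasts as host cells; luminescent beta-galactosidase reporter signal from transgenic T. cruzi replicating inside host cells; inhibitors lower the luminescence signal.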 It is filed as functional, cell-based.
Assay [15] can be described thus: C. albicans growth with fluconazole, confirmation, fluorescence, retest (AID 2467). The class given is functional, cell-based.
Assay [16] concerns the target T6, Serine/threonine-protein phosphatase (Candida dubliniensis (strain CD36 / CBS 7987 / NCPF 3949 / NRRLY-17841) (Yeast), UniProt B9W6M3).
T6 sequence (B9W6M3 whole entry): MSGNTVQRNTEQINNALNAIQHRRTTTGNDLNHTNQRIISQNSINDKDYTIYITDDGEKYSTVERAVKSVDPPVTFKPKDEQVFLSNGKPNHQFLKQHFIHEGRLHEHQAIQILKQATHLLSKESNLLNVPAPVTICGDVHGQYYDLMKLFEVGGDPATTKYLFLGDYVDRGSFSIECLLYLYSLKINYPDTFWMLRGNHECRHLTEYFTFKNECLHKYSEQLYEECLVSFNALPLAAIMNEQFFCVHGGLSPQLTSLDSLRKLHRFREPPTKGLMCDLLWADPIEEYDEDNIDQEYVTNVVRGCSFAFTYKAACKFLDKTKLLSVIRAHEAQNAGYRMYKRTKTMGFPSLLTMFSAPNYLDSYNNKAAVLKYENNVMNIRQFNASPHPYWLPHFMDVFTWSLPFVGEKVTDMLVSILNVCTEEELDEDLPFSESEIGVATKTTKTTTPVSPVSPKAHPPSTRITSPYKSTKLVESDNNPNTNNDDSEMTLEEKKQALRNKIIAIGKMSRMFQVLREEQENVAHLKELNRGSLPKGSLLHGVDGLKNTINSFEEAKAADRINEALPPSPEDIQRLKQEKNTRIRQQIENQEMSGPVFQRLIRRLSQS
The assay is described as follows: calcineurin pathway inhibitors in yeast reporter, dose response, S. cerevisiae, CDRE-lacZ, luminescence, secondary (AID 2388).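 Further: yeast reporter cells carrying a calcineurin-responsive lacZ construct stimulated with calcium chloride; luminescent beta-galactosidase reporter signal in whole cells rather than isolated phosphatase activity; potency for inhibition where a drop in reporter signal means calcineurin blockade.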 It is filed as functional, cell-based.

The nature of assay [17]: growth suppression of PTEN-null colon cells, dose response, cell-based, HCT116 PTEN knockout (AID 1047).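 Further: HCT116 colon tumor cells with PTEN knocked out; cells exposed to compound for 60 hours before readout; potency for loss of cell viability measured by luminescence.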 It is filed as functional.
Assay [18] is described as follows: NIH-3T3 fibroblast cytotoxicity, dose response, cytotoxicity control, cell-based, fluorescence, Alamar Blue, secondary assay (AID 2327).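 Further: NIH-3T3 mouse fibroblasts cultured with fluconazole at 8 µg/mL.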 The class given is functional.
Assay [19] is described as follows: growth suppression of beta-catenin-knockout colon cells, dose response, cell-based, HCT116, human colon tumor (AID 1045).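 Further: HCT116 colon tumor cells with beta catenin knocked out; cells exposed to compound for 60 hours.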 It is filed as functional.
Assay [20] has as its target ATP-dependent molecular chaperone HSP82 (Candida albicans (strain WO-1) (Yeast), UniProt C4YTQ8). The assay is described as follows: loss of DOC-induced GRE-beta-galactosidase reporter signal, dose response, Hsp90 inhibitor project, S. cerevisiae, luminescence (AID 2400).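 Further: beta-galactosidase luminescence from glucocorticoid response element reporter as proxy for Hsp90 function; inhibitor potency where signal loss means Hsp90 inhibition.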 The class given is functional, cell-based.
Assay [21] can be described thus: cytotoxicity toward NIH3T3 fibroblasts, dose response, counter-screen, cell-based, ATP luminescence, mouse fibroblasts (AID 2010).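 Further: cells exposed to compound for about 90 hours before reading.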 It is filed as functional.

Activity calls are given as the source filed them. For most assays here, no stated cut-off is given here; in the data, actives have a measured EC50 and inactives only a lower limit.

Sequence of ATP-dependent molecular chaperone HSP82 (C4YTQ8 whole entry): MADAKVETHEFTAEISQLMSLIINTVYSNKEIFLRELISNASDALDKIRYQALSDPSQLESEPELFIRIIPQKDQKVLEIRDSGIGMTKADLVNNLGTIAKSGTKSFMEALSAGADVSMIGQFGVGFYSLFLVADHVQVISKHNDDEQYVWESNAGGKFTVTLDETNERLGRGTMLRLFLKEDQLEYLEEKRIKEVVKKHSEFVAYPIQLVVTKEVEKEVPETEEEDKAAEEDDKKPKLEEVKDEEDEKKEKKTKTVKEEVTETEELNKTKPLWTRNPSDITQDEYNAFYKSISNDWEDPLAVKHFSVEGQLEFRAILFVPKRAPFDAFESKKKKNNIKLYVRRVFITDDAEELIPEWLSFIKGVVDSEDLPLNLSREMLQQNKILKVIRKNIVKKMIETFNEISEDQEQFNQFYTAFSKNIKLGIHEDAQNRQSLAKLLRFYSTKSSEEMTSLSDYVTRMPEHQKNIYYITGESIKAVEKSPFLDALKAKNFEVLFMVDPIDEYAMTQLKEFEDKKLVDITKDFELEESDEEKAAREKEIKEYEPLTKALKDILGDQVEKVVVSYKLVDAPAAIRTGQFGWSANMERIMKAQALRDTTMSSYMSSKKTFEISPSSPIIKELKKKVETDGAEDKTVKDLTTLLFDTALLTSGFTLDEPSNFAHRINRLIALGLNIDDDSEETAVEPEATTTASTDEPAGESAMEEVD

As for `CS(=O)(=O)N1N=C(c2ccc(Br)cc2)CC1c1ccc2c(c1)OCO2` (stereo not drawn), the EC50 was 0.328 µM (active) in [1]; < 0.1 µM (active) with H4; < 0.1 µM (active) in [2]; 0.344 µM (active) in assay [3]; 0.467 µM (active) in assay [4]; 0.174 µM (active) in [5]. The AC50 with HeLa was 61.3 µM (active).
On to `Cc1ccc(C(=O)C2=C(O)C(=O)N(Cc3ccco3)C2c2cccc(Br)c2)o1` (stereo not drawn), for which the EC50 is > 150 µM (not active) at Streptokinase A; 6.16 µM (active) in [6]; 11.2 µM (active) with Streptococcus; 18.3 µM (inconclusive) in assay [7]; 35.6 µM (active) in [8]; > 300 µM (not active) in assay [9].
On to `CCOc1cc(/C=C2/NC(=S)NC2=O)ccc1OCc1ccc([N+](=O)[O-])cc1`, for which the EC50 at Streptokinase A is 8.31 µM (active); in assay [6], 3.85 µM (active); with Streptococcus it was > 150 µM (not active). In assay [10], the AC50 was 8.19 µM (active). Moreover, in [11], the IC50 was 3.76 µM (active).
Consider `Clc1ccc(-n2nnc(-c3cc4ccccc4nc3Cl)n2)cn1`, for which the IC50 at Bcl-2-related protein A1 [12] and on Bcl-2-related protein A1 [13] was > 100 µM (not active) throughout.
Turning to `O=C(CNc1ccc2ccccc2c1)N/N=C/c1ccc([N+](=O)[O-])o1`, the EC50 at Streptokinase A is > 150 µM (not active); in [14], < 0.1 µM (active); in the assay “cells” it was 0.019 µM (active); in [15] it was 3.85 µM (active); in assay [6] it was 11.1 µM (active); with Streptococcus, > 150 µM (not active). Moreover, the EC50 is > 180 µM (inactive) in [16]; 14.2 µM (active) in assay [17]; > 160 µM (inactive) in assay [18]; 15.9 µM (active) in assay [19]; > 160 µM (inactive) in assay [20]; > 60 µM (not active) in [21]. In assay [10], the AC50 was 4.95 µM (active).

What is called EC50 is the concentration needed to bring the measured effect to its halfway point. As a reminder, the AC50 is the midpoint of the concentration-response curve, whichever way the signal moves. Usually IC50 stands for the concentration that gives 50% inhibition.
